What was measured:
[1] = tested on: IDH1m clone in AML patients; test: IDH1 Variant Allele Frequency (VAF) analysis in Phase 1 patients; type: in vivo, human
Description: Next generation sequencing was carried out through target enrichment using HaloPlex® Target followed by Illumina® sequencing; coverage>100X across 75 genes. Digitial droplet PCR (ddPCR) was carried out through an input of 20 ng on a Stilla 3-channel system; VAF data based on >20,000 droplets.
25 patients achieved an objective response and 6 patients with SD had available longitudinal samples for analysis (VAF at C3).

[2] = tested on: AML/MDS harboring IDH1-R132 mutations; test: Phase 1 dose escalation and expansion study, investigator-assessed response; type: in vivo, human
BCL6 = BCL6 (Homo sapiens, UniProt P41182); test: Surface Plasmon Resonance (SPR), control surface; type: binding; details: immobilized unrelated protein BCL6

SMILES: C[C@H](Nc1ccc(C#N)n(C)c1=O)c1cc2cc(Cl)ccc2[nH]c1=O [Compound 1, 5-{[(1S)-1-(6-chloro-2-oxo-1,2-dihydroquinolin-3-yl)ethyl]amino}-1-methyl-6-oxo-1,6-dihydropyridine-2-carbonitrile]
- patients with clearance/significant reduction of the IDH1m VAF ([1]; 3 of 6 patients with stable disease): 50%
- patients with IDH1 mutation clearance/significant VAF reduction ([1]; 10 of 25 patients with an IWG (objective) response, single agent or with azacitidine, VAF at ≥C3): 40%
- IDH1 mutation and 2-HG, case study 2 ([1]; one treatment naive AML secondary to MDS patient, single agent, stable for 15 cycles, no IWG response): IDH1 mutation clearance and normalization of 2-HG were observed
- CR/CRm, n (%) ([2]; All Pts): 5 (16) n (%)
- CRh, n (%) ([2]; All Pts): 3 (9) n (%)
- Marrow CR, n (%) ([2]; All Pts): 1 (3) n (%)
- PD, n (%) ([2]; All Pts): 3 (9) n (%)
- CR/CRm, n (%) ([2]; R/R AML): 4 (18) n (%)
- CRh, n (%) ([2]; R/R AML): 3 (14) n (%)
- Cri, n (%) ([2]; R/R AML): 2 (9) n (%)
- NE, n (%) ([2]; R/R AML): 6 (27) n (%)
- PD, n (%) ([2]; R/R AML): 2 (9) n (%)
- pts achieving ORR ([2]; R/R AML): 41%
- binding to control surface (BCL6): no binding was observed

— US20240148718A1, “INHIBITING MUTANT ISOCITRATE DEHYDROGENASE 1 (mIDH-1)” (FORMA Therapeutics, Inc., priority 2018, published 2024)
